≈ marks a conversion by molar mass, not a printed value. Calls of active or inactive are those of the source. The calls are words filed in the database; no cut-off is given here.
Tests used:
[1] = MRT in Sprague-Dawley rat at 5 mg/kg, iv; format: ADME, organism-based; conditions: in vivo
Homo sapiens [2] = organism: Homo sapiens; test: Inhibition of TKL (unknown origin) at 1 uM in presence of ATP at Km concentration by Mobility shift assay relative to control
[3] = biological target: Menin/Histone-lysine N-methyltransferase MLL (Homo sapiens, UniProt O00255); test: Inhibition of Menin/fluorescein labeled MLL(4 to 43 residues) (unknown origin) protein protein interaction incubated for 1 hr by fluorescence polarization-based competitive binding assay
Sequence of Menin/Histone-lysine N-methyltransferase MLL (O00255 whole entry, the tested form may be a part): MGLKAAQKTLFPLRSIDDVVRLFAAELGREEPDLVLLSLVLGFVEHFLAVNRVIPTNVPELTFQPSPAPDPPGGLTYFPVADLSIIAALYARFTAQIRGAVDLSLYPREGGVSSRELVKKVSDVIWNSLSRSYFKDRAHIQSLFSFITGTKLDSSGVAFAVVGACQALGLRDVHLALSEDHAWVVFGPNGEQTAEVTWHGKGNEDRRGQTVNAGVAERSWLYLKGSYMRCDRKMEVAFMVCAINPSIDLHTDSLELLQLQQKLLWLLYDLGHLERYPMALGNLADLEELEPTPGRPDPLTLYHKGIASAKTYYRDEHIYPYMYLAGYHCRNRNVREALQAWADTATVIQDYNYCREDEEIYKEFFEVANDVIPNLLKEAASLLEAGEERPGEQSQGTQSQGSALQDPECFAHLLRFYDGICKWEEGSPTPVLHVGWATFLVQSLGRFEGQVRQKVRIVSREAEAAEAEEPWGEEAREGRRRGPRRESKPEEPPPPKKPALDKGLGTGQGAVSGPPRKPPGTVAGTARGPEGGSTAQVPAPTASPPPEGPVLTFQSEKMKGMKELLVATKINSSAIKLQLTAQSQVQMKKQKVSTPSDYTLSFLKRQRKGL
Sequence of Menin/Histone-lysine N-methyltransferase MLL (Q03164 1-2718 partner limits assumed): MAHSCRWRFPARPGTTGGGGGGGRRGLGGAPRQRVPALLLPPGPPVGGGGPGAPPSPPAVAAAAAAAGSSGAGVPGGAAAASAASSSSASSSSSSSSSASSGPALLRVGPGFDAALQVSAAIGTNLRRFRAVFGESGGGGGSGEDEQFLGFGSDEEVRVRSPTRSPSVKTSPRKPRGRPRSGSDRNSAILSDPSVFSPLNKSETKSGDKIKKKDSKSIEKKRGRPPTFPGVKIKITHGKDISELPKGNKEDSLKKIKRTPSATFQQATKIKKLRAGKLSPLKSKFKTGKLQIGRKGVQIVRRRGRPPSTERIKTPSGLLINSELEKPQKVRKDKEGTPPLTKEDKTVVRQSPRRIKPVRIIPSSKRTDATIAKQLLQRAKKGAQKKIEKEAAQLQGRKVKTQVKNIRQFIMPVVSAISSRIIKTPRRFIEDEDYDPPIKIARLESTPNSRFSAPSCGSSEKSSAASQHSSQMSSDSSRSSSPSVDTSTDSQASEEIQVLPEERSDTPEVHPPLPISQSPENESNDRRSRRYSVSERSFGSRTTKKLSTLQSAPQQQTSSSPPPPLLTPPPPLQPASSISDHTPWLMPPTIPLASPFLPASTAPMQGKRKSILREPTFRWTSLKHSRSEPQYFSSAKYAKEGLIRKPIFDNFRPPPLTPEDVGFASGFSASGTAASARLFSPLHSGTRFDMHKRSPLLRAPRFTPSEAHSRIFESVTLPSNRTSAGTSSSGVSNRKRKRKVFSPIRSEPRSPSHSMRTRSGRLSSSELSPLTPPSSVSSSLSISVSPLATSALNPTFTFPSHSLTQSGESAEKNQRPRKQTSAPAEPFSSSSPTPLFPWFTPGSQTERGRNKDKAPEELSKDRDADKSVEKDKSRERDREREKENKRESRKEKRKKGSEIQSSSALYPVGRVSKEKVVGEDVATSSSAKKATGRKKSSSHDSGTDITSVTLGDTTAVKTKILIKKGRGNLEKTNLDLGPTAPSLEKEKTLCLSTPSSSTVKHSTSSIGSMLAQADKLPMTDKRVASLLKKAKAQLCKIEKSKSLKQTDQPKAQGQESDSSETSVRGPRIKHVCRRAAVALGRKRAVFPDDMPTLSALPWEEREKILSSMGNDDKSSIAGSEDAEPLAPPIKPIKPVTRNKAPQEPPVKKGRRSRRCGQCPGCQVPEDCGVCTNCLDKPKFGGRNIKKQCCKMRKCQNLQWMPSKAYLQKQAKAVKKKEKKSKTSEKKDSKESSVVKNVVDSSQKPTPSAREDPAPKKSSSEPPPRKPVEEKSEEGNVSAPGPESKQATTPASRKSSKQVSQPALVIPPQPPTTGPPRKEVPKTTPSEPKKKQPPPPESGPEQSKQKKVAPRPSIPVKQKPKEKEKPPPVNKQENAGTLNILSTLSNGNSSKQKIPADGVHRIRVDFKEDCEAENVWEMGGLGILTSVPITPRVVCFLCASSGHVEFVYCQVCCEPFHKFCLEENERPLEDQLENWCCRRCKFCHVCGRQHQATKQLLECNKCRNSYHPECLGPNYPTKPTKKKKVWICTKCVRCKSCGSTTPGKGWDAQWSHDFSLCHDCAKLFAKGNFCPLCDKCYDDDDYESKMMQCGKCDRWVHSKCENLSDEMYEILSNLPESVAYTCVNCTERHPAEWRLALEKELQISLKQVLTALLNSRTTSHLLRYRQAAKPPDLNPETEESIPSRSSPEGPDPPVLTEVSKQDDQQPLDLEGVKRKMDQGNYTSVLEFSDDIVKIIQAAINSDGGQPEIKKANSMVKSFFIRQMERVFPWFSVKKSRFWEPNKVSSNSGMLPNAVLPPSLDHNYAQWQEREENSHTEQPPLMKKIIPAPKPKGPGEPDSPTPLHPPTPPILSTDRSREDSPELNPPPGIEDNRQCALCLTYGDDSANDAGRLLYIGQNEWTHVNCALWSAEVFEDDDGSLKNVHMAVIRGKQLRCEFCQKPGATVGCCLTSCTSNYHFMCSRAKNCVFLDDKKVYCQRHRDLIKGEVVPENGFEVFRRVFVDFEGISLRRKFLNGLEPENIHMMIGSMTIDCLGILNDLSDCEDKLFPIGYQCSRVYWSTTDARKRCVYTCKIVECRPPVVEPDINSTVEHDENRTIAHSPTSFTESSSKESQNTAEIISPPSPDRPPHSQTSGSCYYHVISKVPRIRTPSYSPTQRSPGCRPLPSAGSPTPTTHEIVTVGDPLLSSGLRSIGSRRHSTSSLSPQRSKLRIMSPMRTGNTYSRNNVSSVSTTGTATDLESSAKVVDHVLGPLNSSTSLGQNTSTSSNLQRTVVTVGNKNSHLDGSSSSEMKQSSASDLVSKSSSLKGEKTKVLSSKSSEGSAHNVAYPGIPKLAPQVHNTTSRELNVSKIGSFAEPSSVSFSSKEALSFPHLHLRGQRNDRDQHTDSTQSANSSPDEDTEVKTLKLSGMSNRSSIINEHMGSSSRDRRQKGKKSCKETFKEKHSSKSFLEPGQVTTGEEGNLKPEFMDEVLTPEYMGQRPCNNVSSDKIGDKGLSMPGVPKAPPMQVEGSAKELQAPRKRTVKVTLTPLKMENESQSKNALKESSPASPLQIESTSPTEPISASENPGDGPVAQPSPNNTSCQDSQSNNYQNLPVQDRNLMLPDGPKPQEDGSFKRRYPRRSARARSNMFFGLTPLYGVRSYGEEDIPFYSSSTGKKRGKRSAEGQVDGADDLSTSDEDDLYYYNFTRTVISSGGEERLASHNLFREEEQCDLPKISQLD
Sequence of Menin/Histone-lysine N-methyltransferase MLL (Q03164 2719-3969 partner limits assumed): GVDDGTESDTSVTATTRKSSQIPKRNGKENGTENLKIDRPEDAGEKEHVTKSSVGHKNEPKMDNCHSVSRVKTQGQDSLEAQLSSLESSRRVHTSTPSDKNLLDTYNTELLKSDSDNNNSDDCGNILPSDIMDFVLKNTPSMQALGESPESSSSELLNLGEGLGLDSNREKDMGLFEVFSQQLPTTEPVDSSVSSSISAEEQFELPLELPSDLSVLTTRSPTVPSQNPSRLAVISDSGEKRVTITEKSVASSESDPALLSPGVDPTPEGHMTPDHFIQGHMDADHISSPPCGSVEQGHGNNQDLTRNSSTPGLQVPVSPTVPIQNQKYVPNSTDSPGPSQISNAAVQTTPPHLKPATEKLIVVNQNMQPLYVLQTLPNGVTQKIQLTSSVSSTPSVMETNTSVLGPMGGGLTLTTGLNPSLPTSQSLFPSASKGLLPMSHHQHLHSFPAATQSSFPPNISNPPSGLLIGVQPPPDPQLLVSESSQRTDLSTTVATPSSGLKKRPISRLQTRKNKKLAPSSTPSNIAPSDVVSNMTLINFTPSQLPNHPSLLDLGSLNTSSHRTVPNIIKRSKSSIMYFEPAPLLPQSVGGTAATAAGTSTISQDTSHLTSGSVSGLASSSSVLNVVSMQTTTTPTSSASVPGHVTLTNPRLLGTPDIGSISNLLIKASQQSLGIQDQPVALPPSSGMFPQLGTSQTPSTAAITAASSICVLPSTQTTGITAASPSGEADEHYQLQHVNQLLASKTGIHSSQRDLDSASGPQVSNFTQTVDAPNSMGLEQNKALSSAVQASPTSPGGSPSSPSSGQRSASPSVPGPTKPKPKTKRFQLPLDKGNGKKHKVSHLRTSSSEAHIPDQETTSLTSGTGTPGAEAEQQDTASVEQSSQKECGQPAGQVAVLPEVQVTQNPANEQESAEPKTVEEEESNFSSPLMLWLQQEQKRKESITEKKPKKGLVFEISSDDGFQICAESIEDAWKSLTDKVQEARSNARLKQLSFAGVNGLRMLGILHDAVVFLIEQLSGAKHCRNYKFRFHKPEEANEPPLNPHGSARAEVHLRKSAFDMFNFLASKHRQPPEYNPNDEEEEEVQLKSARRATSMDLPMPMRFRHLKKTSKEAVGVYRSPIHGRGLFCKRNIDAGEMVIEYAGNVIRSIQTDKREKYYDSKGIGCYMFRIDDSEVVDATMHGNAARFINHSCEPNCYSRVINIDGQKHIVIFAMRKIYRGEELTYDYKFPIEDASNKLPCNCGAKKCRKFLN

MV4-11 [4] = test: Suppression of HOXA9 gene transcription in human MV4-11 cells xenografted in BALB/c nude mouse at 15 mg/kg, iv measured at 24 hrs by RT-PCR analysis; format: functional, organism-based
MV4-11 [5] = test: Downregulation of HOXA9 gene in human MV4-11 cells incubated for 24 hrs by real-time PCR analysis; format: functional, cell-based; conditions: dose 0.1-10 µM, DDE = dose-dependent effect
[6] = Metabolic stability in Sprague-Dawley rat liver microsome assessed as compound remaining measured after 60 min by UPLC-MS/MS analysis; format: ADME; conditions: liver microsomes, read-out: Stability
[7] = Cmax in Sprague-Dawley rat at 5 mg/kg, iv; format: ADME, organism-based; set-up: dose 5 mg/kg, route iv; conditions: in vivo
[8] = Metabolic stability in Sprague-Dawley rat liver microsome assessed as half life measured upto 60 min by UPLC-MS/MS analysis; format: ADME; conditions: liver microsomes
MV4-11 [9] = test: Antitumor activity against human MV4-11 cells xenografted in BALB/c nude mouse assessed as tumor growth inhibition at 30 mg/kg, po administered every second day for 16 days by calipers analysis; format: functional; conditions: MV4-11, 384 h, time 16 day, read-out: TGI
[10] = AUC (0 to infinity) in Sprague-Dawley rat at 15 mg/kg, po; format: ADME, organism-based; set-up: time infinity, dose 15 mg/kg, route po; conditions: in vivo
[11] = Metabolic stability in Crab eating monkey liver microsome assessed as intrinsic clearance measured upto 60 min by UPLC-MS/MS analysis; format: ADME, Macaca fascicularis; conditions: cynomolgus monkey, microsomes, 1 h
MV4-11 [12] = test: Induction of cell cycle arrest in human MV4-11 cells assessed as accumulation at S phase at 0.1 to 10 uM incubated for 24 hrs by PI/RNase staining based flow cytometry analysis; format: functional; conditions: dose 0.1-10 µM
[13] = AUC (0 to t) in Sprague-Dawley rat at 5 mg/kg, iv; format: ADME, organism-based; set-up: dose 5 mg/kg, route iv; conditions: in vivo
HL-60 = test: Antiproliferative activity against human […] assessed as cell growth inhibition measured for 72 hrs by MTT assay; format: functional, cell-based; conditions: HL-60, 72 h
[14] = Metabolic stability in CD-1 mouse liver microsome assessed as intrinsic clearance measured upto 60 min by UPLC-MS/MS analysis; format: ADME; conditions: microsomes, 1 h
Homo sapiens [15] = organism: Homo sapiens; test: Inhibition of CMGC (unknown origin) at 1 uM in presence of ATP at Km concentration by Mobility shift assay relative to control
Homo sapiens [16] = organism: Homo sapiens; test: Inhibition of STE (unknown origin) at 1 uM in presence of ATP at Km concentration by Mobility shift assay relative to control
[17] = biological target: Casein kinase I (Homo sapiens) (UniProt Q9HCP0+P78368+P48730+P49674+P48729); test: Inhibition of CK1 (unknown origin) at 1 uM in presence of ATP at Km concentration by Mobility shift assay relative to control; format: protein assay
[18] = AUC (0 to infinity) in Sprague-Dawley rat at 5 mg/kg, iv; format: ADME, organism-based; set-up: time infinity, dose 5 mg/kg, route iv; conditions: in vivo
[19] = Metabolic stability in CD-1 mouse liver microsome assessed as compound remaining measured after 60 min by UPLC-MS/MS analysis; format: ADME; conditions: liver microsomes, read-out: Stability
MV4-11 [20] = test: Antiproliferative activity against human MV4-11 cells assessed as reduction in cell viability measured for 3 days followed by replacement with fresh medium of compound and measured after 72 hrs by cell counting assay; format: functional, cell-based; conditions: MV4-11, 72 h
[21] = Half life in Sprague-Dawley rat at 15 mg/kg, po; format: ADME, organism-based; conditions: in vivo
[22] = Metabolic stability in human liver microsome assessed as compound remaining measured after 60 min by UPLC-MS/MS analysis; format: ADME; conditions: liver microsomes, read-out: Stability
[23] = Metabolic stability in CD-1 mouse liver assessed as intrinsic clearance measured upto 60 min by UPLC-MS/MS analysis; format: ADME, tissue-based; conditions: read-out: CLH
MV4-11 [24] = test: Induction of cell differentiation in human MV4-11 cells assessed as increase in CD11b expression at 10 uM measured after 7 days by flow cytometric analysis; format: functional, cell-based; conditions: time 7.0 day
[25] = Volume of distribution at steady state in Sprague-Dawley rat at 5 mg/kg, iv; format: ADME, organism-based; conditions: in vivo
[26] = Metabolic stability in CD-1 mouse liver microsome assessed as half life measured upto 60 min by UPLC-MS/MS analysis; format: ADME; conditions: liver microsomes
Homo sapiens [27] = organism: Homo sapiens; test: Inhibition of tyrosine kinase (unknown origin) at 1 uM in presence of ATP at Km concentration by Mobility shift assay relative to control
[28] = Metabolic stability in Crab eating monkey liver microsome assessed as half life measured upto 60 min by UPLC-MS/MS analysis; format: ADME, Macaca fascicularis; conditions: cynomolgus monkey, liver microsomes
[29] = Half life in Sprague-Dawley rat at 5 mg/kg, iv; format: ADME, organism-based; conditions: in vivo
[30] = Metabolic stability in Beagle dog liver assessed as intrinsic clearance measured upto 60 min by UPLC-MS/MS analysis; format: ADME, tissue-based, Canis lupus familiaris; conditions: read-out: CLH
[31] = Total clearance in Sprague-Dawley rat at 5 mg/kg, iv; format: ADME, organism-based; conditions: in vivo
[32] = Tmax in Sprague-Dawley rat at 15 mg/kg, po; format: ADME, organism-based; conditions: in vivo
MV4-11 [33] = test: Antitumor activity against human MV4-11 cells xenografted in BALB/c nude mouse assessed as tumor growth inhibition at 6 mg/kg, po administered every second day for 16 days by calipers analysis; format: functional; conditions: MV4-11, 384 h, time 16 day, read-out: TGI
[34] = Solubility of compound in phosphate buffer at pH 7.4 by spectrophotometric analysis; format: physicochemical
[35] = Metabolic stability in human liver assessed as intrinsic clearance measured upto 60 min by UPLC-MS/MS analysis; format: ADME, tissue-based; conditions: read-out: CLH
MV4-11 [36] = test: Antiproliferative activity against human MV4-11 cells assessed as reduction in cell viability measured for 3 days by cell counting assay; format: functional, cell-based; conditions: MV4-11, 72 h
MV4-11 [37] = test: Downregulation of MEISI gene in human MV4-11 cells incubated for 24 hrs by real-time PCR analysis; format: functional, cell-based; conditions: dose 0.1-10 µM, DDE = dose-dependent effect
[38] = Metabolic stability in human liver microsome assessed as intrinsic clearance measured upto 60 min by UPLC-MS/MS analysis; format: ADME; conditions: microsomes, 1 h
[39] = Volume of distribution at steady state in Sprague-Dawley rat at 15 mg/kg, po; format: ADME, organism-based; conditions: in vivo
[40] = Metabolic stability in Crab eating monkey liver assessed as intrinsic clearance measured upto 60 min by UPLC-MS/MS analysis; format: ADME, tissue-based, Macaca fascicularis; conditions: cynomolgus monkey, read-out: CLH
MV4-11 [41] = test: Suppression of MEIS1 gene transcription in human MV4-11 cells xenografted in BALB/c nude mouse at 15 mg/kg, iv measured after 24 hrs by RT-PCR analysis; format: functional, organism-based
[42] = Metabolic stability in Beagle dog liver microsome assessed as half life measured upto 60 min by UPLC-MS/MS analysis; format: ADME, Canis lupus familiaris; conditions: liver microsomes
[43] = Metabolic stability in human liver microsome assessed as half life measured upto 60 min by UPLC-MS/MS analysis; format: ADME; conditions: liver microsomes
[44] = Metabolic stability in Crab eating monkey liver microsome assessed as compound remaining measured after 60 min by UPLC-MS/MS analysis; format: ADME, Macaca fascicularis; conditions: cynomolgus monkey, liver microsomes, read-out: Stability

MRT [1]: 7.1 h
inhibition (Homo sapiens [2]): < 25%
IC50 [3]: 7 nM
remaining at 1 h [6]: 77%
Cmax [7]: 1190 ng/mL
half-life [8]: 2.75 h
AUC(0-inf) [10]: 1480 ng·h/mL
CLint [11]: 22 µL/min/mg
AUC(0-t) [13]: 1700 ng·h/mL
IC50 (HL-60): > 10000 nM
CLint [14]: 7.2 µL/min/mg
inhibition (Homo sapiens [15]): < 25%
inhibition (Homo sapiens [16]): < 25%
inhibition [17]: < 25%
AUC(0-inf) [18]: 2500 ng·h/mL
remaining at 1 h [19]: 82%
IC50 (MV4-11 [20]): 300 nM
half-life [21]: 15.5 h
remaining at 1 h [22]: 79%
CLint scaled [23]: 28.2 mL/min/kg
Vdss [25]: 49.3 L/kg
half-life [26]: 3.38 h
inhibition (Homo sapiens [27]): < 25%
half-life [28]: 1.08 h
half-life [29]: 17.5 h
CLint scaled [30]: 20 mL/min/kg
CL [31]: 34.27 mL/min/kg
Tmax [32]: 7.3 h
solubility [34]: 398 µg/mL (≈ 704 µM)
CLint scaled [35]: 8 mL/min/kg
IC50 (MV4-11 [36]): 360 nM
CLint [38]: 8.4 µL/min/mg
Vdss [39]: 23 L/kg
CLint scaled [40]: 31.7 mL/min/kg
half-life [42]: 1.7 h
half-life [43]: 3.2 h
remaining at 1 h [44]: 52%
Structure (SMILES): CN(C)CCOc1ccc2ncnc(NC3CCN(CC4CN(c5ccc(S(=O)(=O)C6CC6)cc5)C4)CC3)c2n1
Activity (MV4-11 [4]): Active
Activity (MV4-11 [5]): Dde
inhibition in vivo at 30 mg/kg (MV4-11 [9]): 97%
Activity (MV4-11 [12]): Active
Activity (MV4-11 [24]): Active
inhibition in vivo at 6 mg/kg (MV4-11 [33]): 64%
Activity (MV4-11 [37]): Dde
Activity (MV4-11 [41]): Active
